Results as given in PubChem BioAssay (NCI).
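Each compound was tested at five concentrations against cells in 96-well plates for 48 hours. At the GI50, growth is halved. At the TGI there is no net growth.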

Legend:
Assay in all cases: NCI-60 cell line screen, 48 h
[1] = tested on: LOX IMVI melanoma
[2] = tested on: UACC-257 melanoma
[3] = tested on: MDA-MB-435
[4] = tested on: MOLT-4 leukemia
[5] = tested on: NCI-H23 lung
[6] = tested on: SW-620 colon
[7] = tested on: IGROV1 ovarian
[8] = tested on: HOP-92 NSCLC
[9] = tested on: BT-549 breast
[10] = tested on: 786-0 renal
[11] = tested on: SK-MEL-28 melanoma
[12] = tested on: MALME-3M melanoma
[13] = tested on: PC-3 prostate
[14] = tested on: TK-10 renal
[15] = tested on: U251 CNS
[16] = tested on: UACC-62 melanoma
[17] = tested on: KM12 colon
[18] = tested on: SK-OV-3 ovarian
[19] = tested on: RPMI-8226 leukemia
[20] = tested on: SNB-19 CNS
[21] = tested on: CAKI-1 renal
[22] = tested on: NCI-H226 lung
[23] = tested on: HT29 colon
[24] = tested on: HOP-62 NSCLC
[25] = tested on: SR leukemia
[26] = tested on: ACHN renal
[27] = tested on: SF-539 CNS
[28] = tested on: HCT-15 colon
[29] = tested on: OVCAR-8 ovarian
[30] = tested on: HCT-116 colon
[31] = tested on: K-562 leukemia
[32] = tested on: M14 melanoma
[33] = tested on: OVCAR-4 ovarian
[34] = tested on: HS 578T breast
[35] = tested on: OVCAR-3 ovarian
[36] = tested on: MDA-MB-468 breast
[37] = tested on: COLO 205 colon
[38] = tested on: OVCAR-5 ovarian
[39] = tested on: DU-145 prostate
[40] = tested on: CCRF-CEM leukemia
[41] = tested on: SF-295 CNS
[42] = tested on: SN12C renal
[43] = tested on: RXF 393 renal
[44] = tested on: EKVX NSCLC
[45] = tested on: SF-268 CNS
[46] = tested on: HL-60(TB) leukemia
[47] = tested on: T-47D breast
[48] = tested on: NCI-H522 lung
[49] = tested on: SK-MEL-5 melanoma
[50] = tested on: A498 renal
[51] = tested on: MCF7 breast
[52] = tested on: NCI-H460 lung
[53] = tested on: HCC-2998 colon
[54] = tested on: NCI/ADR-RES ovarian
[55] = tested on: A549 NSCLC

SMILES: O=C(Nc1ccc(F)cc1)Nc1nc2ccc([N+](=O)[O-])cc2s1
- GI50 [1]: 3.58 µM
- TGI [1]: 12.8 µM
- GI50 [2]: 2.27 µM
- TGI [2]: 6.48 µM
- GI50 [3]: 3.18 µM
- TGI [3]: 11.3 µM
- GI50 [4]: 2.41 µM
- TGI [4]: 6.77 µM
- GI50 [5]: 2.45 µM
- TGI [5]: 6.21 µM
- GI50 [6]: 3.41 µM
- TGI [6]: 12.7 µM
- GI50 [7]: 3.93 µM
- TGI [7]: 14.5 µM
- GI50 [8]: 2.59 µM
- TGI [8]: 7.13 µM
- GI50 [9]: 1.95 µM
- TGI [9]: 5.03 µM
- GI50 [10]: 3.07 µM
- TGI [10]: 11.5 µM
- GI50 [11]: 3 µM
- TGI [11]: 11 µM
- GI50 [12]: 1.96 µM
- TGI [12]: 5.38 µM
- GI50 [13]: 3.48 µM
- TGI [13]: 12.3 µM
- GI50 [14]: 3.29 µM
- TGI [14]: 12 µM
- GI50 [15]: 3.3 µM
- TGI [15]: 11.3 µM
- GI50 [16]: 2.62 µM
- TGI [16]: 9.22 µM
- GI50 [17]: 3.05 µM
- TGI [17]: 10.5 µM
- GI50 [18]: 2.14 µM
- TGI [18]: 6.98 µM
- GI50 [19]: 1.92 µM
- TGI [19]: 5.04 µM
- GI50 [20]: 3.21 µM
- TGI [20]: 12.2 µM
- GI50 [21]: 2.96 µM
- TGI [21]: 10.7 µM
- GI50 [22]: 3.34 µM
- TGI [22]: 11.7 µM
- GI50 [23]: 3.42 µM
- TGI [23]: 11 µM
- GI50 [24]: 3.19 µM
- TGI [24]: 11.8 µM
- GI50 [25]: 1.86 µM
- TGI [25]: 5.02 µM
- GI50 [26]: 3.09 µM
- TGI [26]: 9.82 µM
- GI50 [27]: 2.59 µM
- TGI [27]: 6.91 µM
- GI50 [28]: 2.73 µM
- TGI [28]: 10.2 µM
- GI50 [29]: 3.42 µM
- TGI [29]: 11.9 µM
- GI50 [30]: 2.92 µM
- TGI [30]: 10.4 µM
- GI50 [31]: 3.03 µM
- TGI [31]: 10.4 µM
- GI50 [32]: 2.7 µM
- TGI [32]: 10.7 µM
- GI50 [33]: 3.3 µM
- TGI [33]: 13.2 µM
- GI50 [34]: 2.6 µM
- TGI [34]: 8.28 µM
- GI50 [35]: 3.45 µM
- TGI [35]: 12.1 µM
- GI50 [36]: 2.36 µM
- TGI [36]: 6.75 µM
- GI50 [37]: 2.1 µM
- TGI [37]: 3.97 µM
- GI50 [38]: 3.45 µM
- TGI [38]: 12.9 µM
- GI50 [39]: 3.94 µM
- TGI [39]: 14 µM
- GI50 [40]: 2.61 µM
- TGI [40]: 10.5 µM
- GI50 [41]: 2.04 µM
- TGI [41]: 5.27 µM
- GI50 [42]: 2.59 µM
- TGI [42]: 8.12 µM
- GI50 [43]: 2.65 µM
- TGI [43]: 8.72 µM
- GI50 [44]: 2.9 µM
- TGI [44]: 10.3 µM
- GI50 [45]: 2.78 µM
- TGI [45]: 11.3 µM
- GI50 [46]: 1.97 µM
- TGI [46]: 4.67 µM
- GI50 [47]: 2.58 µM
- TGI [47]: 7.68 µM
- GI50 [48]: 2.37 µM
- TGI [48]: 7.56 µM
- GI50 [49]: 1.73 µM
- TGI [49]: 3.3 µM
- GI50 [50]: 2.26 µM
- TGI [50]: 6.46 µM
- GI50 [51]: 2.51 µM
- TGI [51]: 8.65 µM
- GI50 [52]: 2.89 µM
- TGI [52]: 9.77 µM
- GI50 [53]: 3.56 µM
- TGI [53]: 12.5 µM
- GI50 [54]: 2.85 µM
- TGI [54]: 9.36 µM
- GI50 [55]: 2.75 µM
- TGI [55]: 11.6 µM

SMILES: COc1cc(/C=C\c2cc(OC)c(OC)c(OC)c2)cc(NS(=O)(=O)c2ccc(Cl)cc2)c1OC
- GI50 [36]: 0.271 µM
- TGI [36]: 19.4 µM

SMILES: O=C(c1ccccc1)C(Br)C(Br)c1ccccc1 (stereo not drawn)
- GI50 [36]: 2.07 µM
- TGI [36]: 4.65 µM

SMILES: O=C(OC[C@@H]1CO1)c1cccc2c(=O)c3ccccc3[nH]c12
- GI50 [36]: 0.883 µM
- TGI [36]: 2.79 µM

SMILES: N#CC(NC(=O)CCl)=C(Cl)Cl
- GI50 [36]: 1.33 µM
- TGI [36]: 3.48 µM
